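These data come from cells grown in 96-well plates and exposed to compound for 48 hours at five concentrations. TGI denotes the concentration required for complete inhibition of growth.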

Among the test systems are OVCAR-4 ovarian; HCT-116 colon; HCC-2998 colon; HOP-62 NSCLC; U251 CNS; LOX IMVI melanoma; NCI-H226 lung; RPMI-8226 leukemia; SN12C renal; NCI-H460 lung; KM12 colon; HOP-92 NSCLC; NCI/ADR-RES ovarian; SNB-75 CNS; SR leukemia; A549 NSCLC; MCF7 breast; PC-3 prostate; HL-60(TB) leukemia; SW-620 colon.
What all share (assay): NCI tumour cell line growth inhibition, 48 h

`Nc1ncnc2c1ncn2[C@@H]1O[C@H](COP(=O)(O)OP(=O)(O)OC[C@H]2O[C@@H](OCCCO)[C@H](O)[C@@H]2O)[C@@H](O)[C@H]1O`: the TGI with OVCAR-4 ovarian, with HCT-116 colon, in the assay with HCC-2998 colon, in the assay on HOP-62 NSCLC, in the assay with U251 CNS and in the assay with LOX IMVI melanoma was greater than 100 µM each time. The TGI in the assay with NCI-H226 lung, in the assay on RPMI-8226 leukemia, in the assay with SN12C renal, with NCI-H460 lung, in the assay with KM12 colon and in the assay with HOP-92 NSCLC was greater than 100 µM in each case. Further, the TGI with NCI/ADR-RES ovarian, with SNB-75 CNS, in the assay with SR leukemia, with A549 NSCLC, in the assay on MCF7 breast and in the assay with PC-3 prostate was greater than 100 µM throughout. The TGI with HL-60(TB) leukemia and in the assay on SW-620 colon was greater than 100 µM in each case.

For `CC(=O)C1C(=O)C(C(C)=O)C2C3C=CC(C3)C12` (stereo not given), the TGI in the assay on OVCAR-4 ovarian, in the assay with HCT-116 colon, in the assay on HCC-2998 colon, in the assay with HOP-62 NSCLC, in the assay on U251 CNS and with LOX IMVI melanoma was greater than 100 µM each time. In addition, the TGI with NCI-H226 lung, in the assay with RPMI-8226 leukemia, in the assay with SN12C renal, with NCI-H460 lung, with KM12 colon and with HOP-92 NSCLC was greater than 100 µM each time. The TGI with NCI/ADR-RES ovarian, in the assay with SNB-75 CNS, in the assay with SR leukemia, in the assay with A549 NSCLC, with MCF7 breast and with PC-3 prostate was greater than 100 µM throughout. Further, the TGI in the assay on HL-60(TB) leukemia and with SW-620 colon was greater than 100 µM throughout.

As to `O=C(O)/C=C/c1ccc(OS(=O)(=O)O)cc1`, the TGI in the assay with OVCAR-4 ovarian, in the assay with HCT-116 colon, with HCC-2998 colon, in the assay with HOP-62 NSCLC, in the assay on U251 CNS and in the assay with LOX IMVI melanoma was greater than 100 µM throughout. Besides, the TGI with NCI-H226 lung, in the assay on RPMI-8226 leukemia, in the assay on SN12C renal, in the assay with NCI-H460 lung, in the assay on KM12 colon and with HOP-92 NSCLC was greater than 100 µM in each case. In addition, the TGI in the assay with NCI/ADR-RES ovarian, in the assay with SNB-75 CNS, in the assay on SR leukemia, in the assay with A549 NSCLC, in the assay on MCF7 breast and with PC-3 prostate was greater than 100 µM in each case. In addition, the TGI with HL-60(TB) leukemia and with SW-620 colon was greater than 100 µM throughout.

`CCOC(=O)C(NC(=O)c1ccccc1)(c1ccc(S(=O)(=O)Nc2onc(C)c2C)cc1)C(F)(F)F` (stereo not given): the TGI in the assay on OVCAR-4 ovarian, in the assay with HCT-116 colon, in the assay on HCC-2998 colon, with HOP-62 NSCLC, with U251 CNS and in the assay on LOX IMVI melanoma was greater than 100 µM in each case. Besides, the TGI with NCI-H226 lung, with RPMI-8226 leukemia, with SN12C renal, with NCI-H460 lung, in the assay with KM12 colon and with HOP-92 NSCLC was greater than 100 µM in each case. The TGI in the assay on NCI/ADR-RES ovarian, in the assay with SNB-75 CNS, with SR leukemia, with A549 NSCLC, in the assay with MCF7 breast and in the assay on PC-3 prostate was greater than 100 µM in each case. The TGI in the assay with HL-60(TB) leukemia and with SW-620 colon was greater than 100 µM each time.

As to `[C-]#[N+]C(=C\c1ccc(O)cc1)/C(=C/c1ccc(O)cc1)[N+]#[C-]`, the TGI in the assay on OVCAR-4 ovarian is greater than 100 µM; in the assay with HCT-116 colon it was 15.8 µM; with HCC-2998 colon, greater than 50.6 µM; in the assay on HOP-62 NSCLC it was greater than 100 µM; with U251 CNS, greater than 23.7 µM; with LOX IMVI melanoma, 5.16 µM. Further, the TGI was greater than 22.7 µM in the assay on NCI-H226 lung; greater than 95.2 µM in the assay on RPMI-8226 leukemia; 6.37 µM in the assay on SN12C renal; greater than 28.6 µM with NCI-H460 lung; greater than 22.3 µM with KM12 colon; greater than 100 µM in the assay on HOP-92 NSCLC. Also, the TGI is greater than 24.5 µM in the assay with NCI/ADR-RES ovarian; 6.83 µM in the assay on SNB-75 CNS; 5.86 µM with SR leukemia; greater than 69.9 µM in the assay with A549 NSCLC; greater than 36.7 µM with MCF7 breast; greater than 26.7 µM with PC-3 prostate. The results for the TGI with HL-60(TB) leukemia and in the assay with SW-620 colon were greater than 24 µM and greater than 34.3 µM, respectively.

(Values after PubChem BioAssay (NCI).)
